Source: PubChem BioAssay (NCI)
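Five compound concentrations were applied to cells in 96-well plates for 48 hours; endpoints were derived by simple linear interpolation of the resulting dose-response curve. The concentration for full growth arrest is given as TGI.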

What was measured:
Assay in all cases: NCI anticancer screen, dose series, 48 h
786-0 renal = tested on: 786-0 renal
A498 renal = tested on: A498 renal
A549 NSCLC = tested on: A549 NSCLC
ACHN renal = tested on: ACHN renal
BT-549 breast = tested on: BT-549 breast
CAKI-1 renal = tested on: CAKI-1 renal
CCRF-CEM leukemia = tested on: CCRF-CEM leukemia
COLO 205 colon = tested on: COLO 205 colon
DU-145 prostate = tested on: DU-145 prostate
EKVX NSCLC = tested on: EKVX NSCLC
HCC-2998 colon = tested on: HCC-2998 colon
HCT-116 colon = tested on: HCT-116 colon
HCT-15 colon = tested on: HCT-15 colon
HL-60(TB) leukemia = tested on: HL-60(TB) leukemia
HOP-62 NSCLC = tested on: HOP-62 NSCLC
HOP-92 NSCLC = tested on: HOP-92 NSCLC
HS 578T breast = tested on: HS 578T breast
IGROV1 ovarian = tested on: IGROV1 ovarian
K-562 leukemia = tested on: K-562 leukemia
KM12 colon = tested on: KM12 colon
LOX IMVI melanoma = tested on: LOX IMVI melanoma
M14 melanoma = tested on: M14 melanoma
MALME-3M melanoma = tested on: MALME-3M melanoma
MDA-MB-231 breast = tested on: MDA-MB-231 breast
MDA-MB-435 = tested on: MDA-MB-435
MDA-N = tested on: MDA-N
MOLT-4 leukemia = tested on: MOLT-4 leukemia
NCI-H23 lung = tested on: NCI-H23 lung
NCI-H460 lung = tested on: NCI-H460 lung
NCI-H522 lung = tested on: NCI-H522 lung
NCI/ADR-RES ovarian = tested on: NCI/ADR-RES ovarian
OVCAR-3 ovarian = tested on: OVCAR-3 ovarian
OVCAR-4 ovarian = tested on: OVCAR-4 ovarian
OVCAR-5 ovarian = tested on: OVCAR-5 ovarian
OVCAR-8 ovarian = tested on: OVCAR-8 ovarian
PC-3 prostate = tested on: PC-3 prostate
RPMI-8226 leukemia = tested on: RPMI-8226 leukemia
RXF 393 renal = tested on: RXF 393 renal
SF-268 CNS = tested on: SF-268 CNS
SF-295 CNS = tested on: SF-295 CNS
SF-539 CNS = tested on: SF-539 CNS
SK-MEL-2 melanoma = tested on: SK-MEL-2 melanoma
SK-MEL-28 melanoma = tested on: SK-MEL-28 melanoma
SK-MEL-5 melanoma = tested on: SK-MEL-5 melanoma
SK-OV-3 ovarian = tested on: SK-OV-3 ovarian
SN12C renal = tested on: SN12C renal
SNB-19 CNS = tested on: SNB-19 CNS
SNB-75 CNS = tested on: SNB-75 CNS
SR leukemia = tested on: SR leukemia
SW-620 colon = tested on: SW-620 colon
T-47D breast = tested on: T-47D breast
U251 CNS = tested on: U251 CNS
UACC-257 melanoma = tested on: UACC-257 melanoma
UACC-62 melanoma = tested on: UACC-62 melanoma
UO-31 renal = tested on: UO-31 renal
HT29 colon = tested on: HT29 colon
NCI-H226 lung = tested on: NCI-H226 lung
TK-10 renal = tested on: TK-10 renal
MCF7 breast = tested on: MCF7 breast

Measured: TGI

CNC(=S)N/N=C(\C)c1cc(OC)ccc1O
> 100 µM: 786-0 renal | A498 renal | A549 NSCLC | ACHN renal | BT-549 breast | CAKI-1 renal | CCRF-CEM leukemia | COLO 205 colon | DU-145 prostate | EKVX NSCLC | HCC-2998 colon | HCT-116 colon | HCT-15 colon | HL-60(TB) leukemia | HOP-62 NSCLC | HOP-92 NSCLC | HS 578T breast | IGROV1 ovarian | K-562 leukemia | KM12 colon | LOX IMVI melanoma | M14 melanoma | MALME-3M melanoma | MDA-MB-231 breast | MDA-MB-435 | MDA-N | MOLT-4 leukemia | NCI-H23 lung | NCI-H460 lung | NCI-H522 lung | NCI/ADR-RES ovarian | OVCAR-3 ovarian | OVCAR-4 ovarian | OVCAR-5 ovarian | OVCAR-8 ovarian | PC-3 prostate | RPMI-8226 leukemia | RXF 393 renal | SF-268 CNS | SF-295 CNS | SF-539 CNS | SK-MEL-2 melanoma | SK-MEL-28 melanoma | SK-MEL-5 melanoma | SK-OV-3 ovarian | SN12C renal | SNB-19 CNS | SNB-75 CNS | SR leukemia | SW-620 colon | T-47D breast | U251 CNS | UACC-257 melanoma | UACC-62 melanoma | UO-31 renal

CCOC(=O)c1sc2nc(SC)nc(N3CCCCC3)c2c1N
> 100 µM: 786-0 renal | A498 renal | A549 NSCLC | ACHN renal | BT-549 breast | CAKI-1 renal | COLO 205 colon | DU-145 prostate | HCC-2998 colon | HCT-116 colon | HCT-15 colon | HOP-62 NSCLC | HOP-92 NSCLC | HS 578T breast | HT29 colon | IGROV1 ovarian | K-562 leukemia | KM12 colon | LOX IMVI melanoma | M14 melanoma | MALME-3M melanoma | MDA-MB-231 breast | MDA-MB-435 | MDA-N | MOLT-4 leukemia | NCI-H226 lung | NCI-H23 lung | NCI-H460 lung | NCI-H522 lung | NCI/ADR-RES ovarian | OVCAR-3 ovarian | OVCAR-4 ovarian | OVCAR-5 ovarian | OVCAR-8 ovarian | PC-3 prostate | RPMI-8226 leukemia | RXF 393 renal | SF-268 CNS | SF-295 CNS | SK-MEL-2 melanoma | SK-MEL-28 melanoma | SK-MEL-5 melanoma | SK-OV-3 ovarian | SN12C renal | SNB-19 CNS | SNB-75 CNS | SR leukemia | SW-620 colon | T-47D breast | TK-10 renal | U251 CNS | UACC-257 melanoma | UACC-62 melanoma | UO-31 renal

CCOc1ccc(NC(=O)C(=O)C2C(=O)Nc3ccccc3S2=O)cc1 (stereo unspecified)
> 100 µM: 786-0 renal | A498 renal | A549 NSCLC | ACHN renal | BT-549 breast | CAKI-1 renal | CCRF-CEM leukemia | EKVX NSCLC | HCT-116 colon | HCT-15 colon | HL-60(TB) leukemia | HOP-62 NSCLC | HOP-92 NSCLC | HS 578T breast | HT29 colon | IGROV1 ovarian | KM12 colon | LOX IMVI melanoma | M14 melanoma | MALME-3M melanoma | MCF7 breast | MDA-MB-231 breast | MDA-MB-435 | MDA-N | NCI-H226 lung | NCI-H23 lung | NCI-H460 lung | NCI-H522 lung | NCI/ADR-RES ovarian | OVCAR-3 ovarian | OVCAR-4 ovarian | OVCAR-5 ovarian | OVCAR-8 ovarian | PC-3 prostate | RPMI-8226 leukemia | RXF 393 renal | SF-268 CNS | SF-295 CNS | SF-539 CNS | SK-MEL-2 melanoma | SK-MEL-28 melanoma | SK-MEL-5 melanoma | SK-OV-3 ovarian | SN12C renal | SNB-75 CNS | SW-620 colon | T-47D breast | TK-10 renal | U251 CNS | UACC-257 melanoma | UACC-62 melanoma | UO-31 renal
